Assays:
[1] = system: Arthus reaction; experiment: Type III allergic (Arthus) reaction-induced rat model, dye leakage; format: in vivo, Slc:Wistar rats; details: 50 mg/kg intraperitoneal; mean±SD
Method: Using forty-two 7-week-old male Slc:Wistar rats, examinations were made on test substance VII-2, with each of intraperitoneal administration and intravenous administration into tail vain. Acclimation was carried out by giving normal solid chow CRF-1 for a period of 6 days or longer. On the day prior to administration, the back of each animal was shaved. On the day of administration, a mixed solution of egg-white Ovalbumin (MP Biomedicals) (hereinafter referred to as “OVA”) and Evans blue dye was administered into the tail vein. […] The amount of dye leakage was quantified by measuring absorbance for the Evans blue dye with a spectrophotometer and using a calibration curve. […]
Several cuttings were made in the skin strips that had been punched out with a punch. […] The amount of dye leakage was calculated from a calibration curve of known amounts of the dye.
The mean value (mean)±standard deviation (SD) for each of the groups was calculated with respect to body-weight measurements and amounts of dye leakage. For amounts of dye leakage, the value for each of the animals was determined by subtracting the mean of the values obtained for the two sites of PBS administration from the mean of the values obtained for the two sites of administration of the anti-OVA solution. […]

[2] = system: IL-1β in plasma; experiment: IL-1β in plasma of adjuvant arthritis rats (ELISA); format: in vivo, rat; details: day 21 post-adjuvant; 10 mg/kg oral from day 10
Method: (§1) TNF-α and IL-1β in plasma were measured in a double-point method using the TNF-α ELISA kit (Lbis® TNF-α-rat) and the IL-1β ELISA kit (Quantikine® Rat IL-1β/IL-1F2).
(§2) On day 21 post-adjuvant, the animals were subjected to autopsy, and plasma was prepared to measure IL-1β and TIN-α concentrations in plasma. In all the groups for which measurements were made, the concentration of TNF-α was below the detection limit (8 pg/mL).

[3] = system: TNF-α in plasma; experiment: TNF-α in plasma of adjuvant arthritis rats (ELISA); format: in vivo, rat; details: day 21 post-adjuvant; 10 mg/kg oral from day 10
Method: as §1, §2

[4] = system: adjuvant-induced arthritis; experiment: Adjuvant arthritis rat model; format: in vivo, Lewis/CrlCrlj rats; parameters: key to Redness scores (left hind-limb) / Redness scores (right hind-limb): 0 = no redness, 4 = severe redness; key to Scores of swelling in the instep (left hind-limb) / Scores of swelling in the instep (right hind-limb): 0 = no swelling, 4 = severe swelling; key to Scores of swelling in knuckle joints (left hind-limb) / Scores of swelling in knuckle joints (right hind-limb): 0 = no swelling, 4 = swelling of all the digits; details: 10 mg/kg oral from day 10
Text: Male Lewis/CrlCrlj (SPF) rats were used to investigate the arthritis suppressing effect of a peptide of the present invention on adjuvant-induced arthritis. Forty-five rats were purchased from Charles River Laboratories Japan, Inc., and fed normal chow and allowed to acclimate for 7 days before used (the range of body weights was from 193.3 to 218.3 g at the beginning of use).
In an agate motor, dead tubercle bacilli (Mycobacterium butyricum; Lot No. 0260570, Difco) were pulverized. Then, liquid paraffin was added in small amounts to spread the pulverized bacilli well, so as to allow them to be emulsified at 1.0 mg/mL. The resultant emulsion was used after verification to ensure that the pulverized bacilli had been allowed to be finely emulsified, using an NM MICRONIZER (Nippon Seiki Co., Ltd.).
A right hind-limb of the respective rats was exposed, and 100 μL of the emulsion was intradermally injected once into a footpad of the right hind-limb using a 25G-needle attached syringe, to cause arthritis (day 0).
Each of the groups was comprised of 5 animals.
Arthritis was evaluated only for the hind-limbs, based on the criteria described below:
Score 0: no swelling Score 1: swelling of not more than two digits Score 2: swelling of three digits Score 3: swelling of four digits Score 4: swelling of all the digits
Score 0: no swelling Score 1: mild swelling Score 2: modest swelling Score 3: rather severe swelling Score 4: severe swelling
Score 0: no redness Score 1: mild redness Score 2: modest redness Score 3: rather severe redness Score 4: severe redness (iii) Measurement of Foot Volumes of Left And Right Hind-Limbs
Measurement was performed using a plethysmometer (UNICOM TK105). The increasing rate foot volume (percentage of paw swelling, paw swelling %) was calculated by the following formula:
Percent paw swelling (%)=[(Vt−Vo)/Vo]×100
In addition, in these examinations, the percent change of edema relative to day 10 post-adjuvant was calculated, in order to assess the effect of treatment with the test substances.
Data are expressed by mean±standard error. Since the uniformity of variance was not verified in testing between the negative and the positive control groups, testing for significant difference was performed by Aspin-Welch t-test. Since the uniformity of variance was not verified in testing for significant differences of the respective test-substance administered groups relative to the positive control group, assessment was performed by Dunnett's multiple comparison test after Kruskal-Wallis testing, using non-parametric procedures. Differences were considered to be statistically significant at p values of less than 0.05.

C[C@]12CCC(=O)C=C1CC[C@@H]1[C@@H]2[C@@H](O)C[C@@]2(C)[C@H]1CC[C@]2(O)C(=O)CO [Hydrocortisone]
amount of dye leakage (Evans blue) [1]: 5.665±0.674 μg/animal

Cc1oncc1C(=O)Nc1ccc(C(F)(F)F)cc1 [Reflumide]
Concentrations of IL-1β in plasma [2]: 13.0 ± 2.5 pg/mL
Concentrations of TNF-α in plasma [3]: N.D (N.D.: below detection limit)
Percent increase in foot volume relative to pre-adjuvant (left hind-limb) ([4]; Day 0 post-adjuvant): 0.00 ± 0.0%
Percent increase in foot volume relative to pre-adjuvant (right hind-limb) ([4]; Day 0 post-adjuvant): 0.00 ± 0.0%
Redness scores (left hind-limb) ([4]; Day 0 post-adjuvant): 0.0 ± 0.0
Redness scores (right hind-limb) ([4]; Day 0 post-adjuvant): 0.0 ± 0.0
Scores of swelling in knuckle joints (left hind-limb) ([4]; Day 0 post-adjuvant): 0.0 ± 0.0
Scores of swelling in knuckle joints (right hind-limb) ([4]; Day 0 post-adjuvant): 0.0 ± 0.0
Scores of swelling in the instep (left hind-limb) ([4]; Day 0 post-adjuvant): 0.0 ± 0.0
Scores of swelling in the instep (right hind-limb) ([4]; Day 0 post-adjuvant): 0.0 ± 0.0
Total scores (left hind-limb) ([4]; Day 0 post-adjuvant): 0.0 ± 0.0
Total scores (right hind-limb) ([4]; Day 0 post-adjuvant): 0.0 ± 0.0
Percent increase in foot volume relative to pre-adjuvant (left hind-limb) ([4]; Day 3 post-adjuvant): 13.28 ± 0.4%
Percent increase in foot volume relative to pre-adjuvant (right hind-limb) ([4]; Day 3 post-adjuvant): 13.33 ± 0.4%
Redness scores (left hind-limb) ([4]; Day 3 post-adjuvant): 0.0 ± 0.0
Redness scores (right hind-limb) ([4]; Day 3 post-adjuvant): 0.0 ± 0.0
Scores of swelling in knuckle joints (left hind-limb) ([4]; Day 3 post-adjuvant): 0.0 ± 0.0
Scores of swelling in knuckle joints (right hind-limb) ([4]; Day 3 post-adjuvant): 0.0 ± 0.0
Scores of swelling in the instep (left hind-limb) ([4]; Day 3 post-adjuvant): 0.0 ± 0.0
Scores of swelling in the instep (right hind-limb) ([4]; Day 3 post-adjuvant): 0.0 ± 0.0
Total scores (left hind-limb) ([4]; Day 3 post-adjuvant): 0.0 ± 0.0
Total scores (right hind-limb) ([4]; Day 3 post-adjuvant): 0.0 ± 0.0
Percent increase in foot volume relative to pre-adjuvant (left hind-limb) ([4]; Day 7 post-adjuvant): 18.56 ± 3.3%
Percent increase in foot volume relative to pre-adjuvant (right hind-limb) ([4]; Day 7 post-adjuvant): 26.75 ± 1.4%
Redness scores (left hind-limb) ([4]; Day 7 post-adjuvant): 0.4 ± 0.2
Redness scores (right hind-limb) ([4]; Day 7 post-adjuvant): 0.6 ± 0.2
Scores of swelling in knuckle joints (left hind-limb) ([4]; Day 7 post-adjuvant): 0.4 ± 0.2
Scores of swelling in knuckle joints (right hind-limb) ([4]; Day 7 post-adjuvant): 0.2 ± 0.2
Scores of swelling in the instep (left hind-limb) ([4]; Day 7 post-adjuvant): 0.4 ± 0.2
Scores of swelling in the instep (right hind-limb) ([4]; Day 7 post-adjuvant): 1.0 ± 0.0
Total scores (left hind-limb) ([4]; Day 7 post-adjuvant): 1.2 ± 1.6
Total scores (right hind-limb) ([4]; Day 7 post-adjuvant): 1.8 ± 0.5
Percent increase in foot volume relative to pre-adjuvant (left hind-limb) ([4]; Day 10 post-adjuvant): 22.94 ± 3.6%
Percent increase in foot volume relative to pre-adjuvant (right hind-limb) ([4]; Day 10 post-adjuvant): 49.75 ± 15.8%
Redness scores (left hind-limb) ([4]; Day 10 post-adjuvant): 0.8 ± 0.4
Redness scores (right hind-limb) ([4]; Day 10 post-adjuvant): 1.2 ± 0.2
Scores of swelling in knuckle joints (left hind-limb) ([4]; Day 10 post-adjuvant): 1.4 ± 0.4
Scores of swelling in knuckle joints (right hind-limb) ([4]; Day 10 post-adjuvant): 1.6 ± 0.6
Scores of swelling in the instep (left hind-limb) ([4]; Day 10 post-adjuvant): 0.6 ± 0.4
Scores of swelling in the instep (right hind-limb) ([4]; Day 10 post-adjuvant): 1.4 ± 0.4
Total scores (left hind-limb) ([4]; Day 10 post-adjuvant): 2.8 ± 1.4
Total scores (right hind-limb) ([4]; Day 10 post-adjuvant): 4.2 ± 1.5
Percent increase in foot volume relative to day 10 post-adjuvant (left hind-limb) ([4]; Day 14 post-adjuvant): −2.2 ± 1.6%
Percent increase in foot volume relative to day 10 post-adjuvant (right hind-limb) ([4]; Day 14 post-adjuvant): −1.3 ± 2.9^ %
Percent increase in foot volume relative to pre-adjuvant (left hind-limb) ([4]; Day 14 post-adjuvant): 20.13 ± 3.2%
Percent increase in foot volume relative to pre-adjuvant (right hind-limb) ([4]; Day 14 post-adjuvant): 46.22 ± 10.7%
Redness scores (left hind-limb) ([4]; Day 14 post-adjuvant): 0.4 ± 0.2
Redness scores (right hind-limb) ([4]; Day 14 post-adjuvant): 1.2 ± 0.2
Scores of swelling in knuckle joints (left hind-limb) ([4]; Day 14 post-adjuvant): 0.6 ± 0.4
Scores of swelling in knuckle joints (right hind-limb) ([4]; Day 14 post-adjuvant): 1.4 ± 0.4
Scores of swelling in the instep (left hind-limb) ([4]; Day 14 post-adjuvant): 0.2 ± 0.2
Scores of swelling in the instep (right hind-limb) ([4]; Day 14 post-adjuvant): 1.2 ± 0.2
Total scores (left hind-limb) ([4]; Day 14 post-adjuvant): 1.2 ± 1.0
Total scores (right hind-limb) ([4]; Day 14 post-adjuvant): 3.8 ± 1.0
Percent increase in foot volume relative to day 10 post-adjuvant (left hind-limb) ([4]; Day 17 post-adjuvant): 1.2 ± 6.3%
Percent increase in foot volume relative to day 10 post-adjuvant (right hind-limb) ([4]; Day 17 post-adjuvant): −3.4 ± 2.8%
Percent increase in foot volume relative to pre-adjuvant (left hind-limb) ([4]; Day 17 post-adjuvant): 24.18 ± 7.7%
Percent increase in foot volume relative to pre-adjuvant (right hind-limb) ([4]; Day 17 post-adjuvant): 43.17 ± 11.2%
Redness scores (left hind-limb) ([4]; Day 17 post-adjuvant): 0.6 ± 0.6
Redness scores (right hind-limb) ([4]; Day 17 post-adjuvant): 0.8 ± 0.2
Scores of swelling in knuckle joints (left hind-limb) ([4]; Day 17 post-adjuvant): 0.6 ± 0.4
Scores of swelling in knuckle joints (right hind-limb) ([4]; Day 17 post-adjuvant): 0.0 ± 0.0
Scores of swelling in the instep (left hind-limb) ([4]; Day 17 post-adjuvant): 0.2 ± 0.2
Scores of swelling in the instep (right hind-limb) ([4]; Day 17 post-adjuvant): 1.2 ± 0.2
Total scores (left hind-limb) ([4]; Day 17 post-adjuvant): 1.4 ± 1.5
Total scores (right hind-limb) ([4]; Day 17 post-adjuvant): 2.0 ± 0.0
Percent increase in foot volume relative to day 10 post-adjuvant (left hind-limb) ([4]; Day 21 post-adjuvant): −1.4 ± 6.1%
Percent increase in foot volume relative to day 10 post-adjuvant (right hind-limb) ([4]; Day 21 post-adjuvant): −5.9 ± 4.1%
Percent increase in foot volume relative to pre-adjuvant (left hind-limb) ([4]; Day 21 post-adjuvant): 20.93 ± 7.3%
Percent increase in foot volume relative to pre-adjuvant (right hind-limb) ([4]; Day 21 post-adjuvant): 38.93 ± 9.5%
Redness scores (left hind-limb) ([4]; Day 21 post-adjuvant): 0.6 ± 0.6
Redness scores (right hind-limb) ([4]; Day 21 post-adjuvant): 1.4 ± 0.4
Scores of swelling in knuckle joints (left hind-limb) ([4]; Day 21 post-adjuvant): 0.4 ± 0.4
Scores of swelling in knuckle joints (right hind-limb) ([4]; Day 21 post-adjuvant): 0.6 ± 0.6
Scores of swelling in the instep (left hind-limb) ([4]; Day 21 post-adjuvant): 0.4 ± 0.4
Scores of swelling in the instep (right hind-limb) ([4]; Day 21 post-adjuvant): 1.4 ± 0.4
Total scores (left hind-limb) ([4]; Day 21 post-adjuvant): 1.4 ± 1.8
Total scores (right hind-limb) ([4]; Day 21 post-adjuvant): 3.4 ± 1.8

— patent US20130225508A1, “PEPTIDE CAPABLE OF BINDING TO IMMUNOGLOBULIN” (priority 2010, published 2013)
